Patent publication US11390609B2, “Rho-associated protein kinase inhibitor, pharmaceutical composition comprising same, and preparation method and use thereof” (BEIJING TIDE PHARMACEUTICAL CO., LTD., priority 2017, dated 2022)
pIC50: −log10 of the molar value. Values belong to the compound of their own block, whether it stands above or below them.

Molecular target: ROCK1 (Homo sapiens (Human), UniProt Q13464)
Assay: ROCK1 kinase IC50 assay (biological test method similar to the ROCK2 assay)
Assay type: biochemical
Experimental: The kinase IC50 was determined by a commercialized CISBIO kinase detection kit, HTRF KinEASE-STK S2 kit (62ST2PEC). ROCK2 (01-119) employed in the reaction was purchased from Carna Biosciences.
Before the assay, the following working solutions as needed were formulated with corresponding reagents according to the instruction of the kinase detection kit: 1×kinase buffer, 5×STK-52 substrate working solution (1.5 μM) and 5×ATP working solution (1.5 μM), 5×ROCK2 kinase working solution, 4×Streptavidin-XL665 working solution, and 4×STK-Ab-Cryptate 2 detection solution. Then the assay was performed according to the following procedure.
A solution of a compound at a concentration of 10000 nM was prepared with the 1×kinase buffer containing 2.5% DMSO. Gradient dilution of the solution of the compound was performed with the kinase buffer containing DMSO, so as to obtain solutions of a test compound at 9 different concentrations. In addition to wells of test compounds, a positive well (containing all the reagents except the compound) and a negative well (containing all the reagents except the test compound and kinase) were set. Except for the control wells (positive and negative wells), a solution of a test compound (4 μL) was added to each of the reaction wells, and a solution of 2.5% DMSO was added to the control wells. Then the substrate ([…], 2 μL. 5×STK-S2 substrate working solution) was added to each of the reaction wells. The 5×ROCK2 kinase working solution (2 μL, containing 1.4 ng ROCK2 kinase) was added to each of the reaction wells except for the negative well, the volume of which was made up with the 1×kinase buffer (2 μL). The 5×ATP working solution (2 μL) was added to each of the reaction wells, and the mixtures were incubated at room temperature for 2 hours. After the kinase reaction was complete, the 4×Streptavidin-XL665 working solution was added to each of the reaction wells, the solutions were mixed, followed by immediate addition of the 4×STK-Ab-Cryptate 2 detection solution (5 μL), and the mixtures were incubated at room temperature for 1 hour. The fluorescence signal was read on ENVISION (Perkinelmer) (excitation wavelength: 320 nm, and emission wavelength: 665 nm and 615 nm). The inhibitory rate in each well was calculated based on the fluorescence intensity value: ER (Emission Ratio)=(fluorescence intensity at 665 nm/fluorescence intensity at 615 nm); inhibitory rate=(ERpositive−ERtest compound)/(ERpositive−ERnegative)*100%. Curves were plotted and fitted to obtain the median inhibitory concentration (IC50) of each teat compound with the PRISM 5.0 software.
According to a biological test method similar to the above, the IC50 values of the compounds on ROCK1 were tested.

Chain of ROCK1 (Q13464 whole entry, species assumed): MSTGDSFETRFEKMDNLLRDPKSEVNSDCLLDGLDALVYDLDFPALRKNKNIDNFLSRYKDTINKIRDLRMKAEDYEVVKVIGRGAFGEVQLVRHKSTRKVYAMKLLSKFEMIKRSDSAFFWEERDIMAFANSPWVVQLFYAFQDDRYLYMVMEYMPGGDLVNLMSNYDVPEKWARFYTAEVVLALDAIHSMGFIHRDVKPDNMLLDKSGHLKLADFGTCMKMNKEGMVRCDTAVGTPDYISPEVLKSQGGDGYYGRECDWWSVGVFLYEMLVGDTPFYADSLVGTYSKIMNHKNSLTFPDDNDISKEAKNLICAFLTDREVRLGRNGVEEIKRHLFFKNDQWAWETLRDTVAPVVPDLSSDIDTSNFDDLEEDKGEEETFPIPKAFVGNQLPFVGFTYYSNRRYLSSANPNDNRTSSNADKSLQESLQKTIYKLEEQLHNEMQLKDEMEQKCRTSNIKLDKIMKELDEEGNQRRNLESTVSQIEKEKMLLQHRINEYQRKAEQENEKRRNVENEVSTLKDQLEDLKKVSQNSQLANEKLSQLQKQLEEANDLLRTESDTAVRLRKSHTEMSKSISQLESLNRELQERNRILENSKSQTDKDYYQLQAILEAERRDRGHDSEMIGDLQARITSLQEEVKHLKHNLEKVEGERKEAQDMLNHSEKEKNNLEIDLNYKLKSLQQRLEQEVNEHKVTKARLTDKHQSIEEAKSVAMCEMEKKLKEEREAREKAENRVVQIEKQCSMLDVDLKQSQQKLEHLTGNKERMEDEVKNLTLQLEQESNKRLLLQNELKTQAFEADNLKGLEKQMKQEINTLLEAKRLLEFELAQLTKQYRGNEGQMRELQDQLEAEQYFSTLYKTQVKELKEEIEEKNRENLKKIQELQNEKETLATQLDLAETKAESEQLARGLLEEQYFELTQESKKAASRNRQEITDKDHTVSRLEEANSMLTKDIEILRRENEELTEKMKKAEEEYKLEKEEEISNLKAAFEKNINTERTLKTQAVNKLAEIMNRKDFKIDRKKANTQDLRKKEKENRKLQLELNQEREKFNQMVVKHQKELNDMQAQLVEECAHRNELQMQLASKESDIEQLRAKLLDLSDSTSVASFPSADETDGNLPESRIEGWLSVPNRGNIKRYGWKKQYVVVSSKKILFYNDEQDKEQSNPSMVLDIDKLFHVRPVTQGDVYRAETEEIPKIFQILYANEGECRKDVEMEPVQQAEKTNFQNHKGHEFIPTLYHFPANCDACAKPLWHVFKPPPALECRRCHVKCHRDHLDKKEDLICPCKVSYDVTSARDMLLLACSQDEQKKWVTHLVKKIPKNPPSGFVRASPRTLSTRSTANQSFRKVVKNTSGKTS

- pIC50: < 5.00
Compound: O=C(Nc1ccccn1)c1cc2ccc(-c3nccc(Nc4ccc5[nH]ncc5c4)n3)cc2[nH]1 [TDI01311, 6-(4-((1H-indazol-5-yl)amino)pyrimidin-2-yl)-N-(pyridin-2-yl)-1H-indole-2-carboxamide]

- pIC50: 5.73
Compound: CC(C)NC(=O)N1Cc2ccc(-c3nccc(Nc4ccc5[nH]ncc5c4)n3)cc2C1 [TDI01312, 5-(4-((1H-indazol-5-yl)amino)pyrimidin-2-yl)-N-isopropylisoindoline-2-carboxamide]

- pIC50: 5.67
Compound: COc1ccc(NC(=O)c2cc3ccc(-c4nccc(Nc5ccc6[nH]ncc6c5)n4)cc3[nH]2)cn1 [TDI01315, 6-(4-((1H-indazol-5-yl)amino)-pyrimidin-2-yl)-N-(6-methoxy-pyridin-3-yl)-1H-indole-2-carboxamide]

- pIC50: 6.00
Compound: CN1CCC(n2cc(NC(=O)c3cc4ccc(-c5nccc(Nc6ccc7[nH]ncc7c6)n5)cc4[nH]3)cn2)CC1 [TDI01316, 6-(4-((1H-indazol-5-yl)amino)-pyrimidin-2-yl)-N-(1-(1-methyl-piperidin-4-yl)-1H-pyrazol-4-yl)-1H-indole-2-carboxamide]

- pIC50: 6.56
Compound: CN1CCC(N2CCCC(NC(=O)c3cc4ccc(-c5nccc(Nc6ccc7[nH]ncc7c6)n5)cc4[nH]3)C2)CC1 (stereo not drawn) [TDI01318, 6-(4-((1H-indazol-5-yl)amino)-pyrimidin-2-yl)-N-(1′-methyl-[1-4′-bipiperidin]-3-yl)-1H-indole-2-carboxamide]

- pIC50: 5.76
Compound: O=C(NC1CC1)c1cc2ccc(-c3nccc(Nc4ccc(-c5cn[nH]c5)cc4)n3)cc2[nH]1 [TDI01324, 6-(4-((4-(1H-pyrazol-4-yl)phenyl)-amino)-pyrimidin-2-yl)-N-cyclopropyl-1H-indole-2-carboxamide]

- pIC50: 5.10
Compound: O=C(c1cc2ccc(-c3nccc(Nc4ccc(-c5cn[nH]c5)cc4)n3)cc2[nH]1)N1CCC1 [TDI01330, (6-(4-((4-(1H-pyrazol-4-yl)phenyl)-amino)-pyrimidin-2-yl)-1H-indol-2-yl)(azetidin-1-yl)methanone]

- pIC50: < 5.00
Compound: O=C(c1cc2ccc(-c3nccc(Nc4ccc(-c5cn[nH]c5)cc4)n3)cc2[nH]1)N1CCOCC1 [TDI01331, (6-(4-((4-(1H-pyrazol-4-yl)phenyl)-amino)-pyrimidin-2-yl)-1H-indol-2-yl)-(morpholino)-methanone]

- pIC50: 5.20
Compound: CCN(CC)C(=O)c1cc2ccc(-c3nccc(Nc4ccc(-c5cn[nH]c5)cc4)n3)cc2[nH]1 [TDI01332, 6-(4-((4-(1H-pyrazol-4-yl)phenyl)-amino)-pyrimidin-2-yl)-N,N-diethyl-1H-indole-2-carboxamide]

Continued, compound first:

Compound: O=C(Nc1ccnnc1)c1cc2cc(-c3nccc(Nc4ccc5[nH]ncc5c4)n3)ccc2[nH]1 [TDI01188, 5-(4-((1H-indazol-5-yl)amino)-pyrimidin-2-yl)-N-(pyridazin-4-yl)-1H-indole-2-carboxamide]
- pIC50: 5.89

Compound: O=C(Nc1ccnnc1)c1c[nH]c2ccc(-c3nccc(Nc4ccc5[nH]ncc5c4)n3)cc12 [TDI01191, 5-(4-((1H-indazol-5-yl)amino)-pyrimidin-2-yl)-N-(pyridazin-4-yl)-1H-indole-3-carboxamide]
- pIC50: 5.60

Compound: O=C(Nc1cn[nH]c1)c1cc2ccc(-c3nccc(Nc4ccc5[nH]ncc5c4)n3)cc2[nH]1 [TDI01199, 6-(4-((1H-indazol-5-yl)amino)-pyrimidin-2-yl)-N-(1H-pyrazol-4-yl)-1H-indole-2-carboxamide]
- pIC50: 5.96

Compound: CC(C)(C)OC(=O)n1cc(NC(=O)c2cc3ccc(-c4nccc(Nc5ccc6[nH]ncc6c5)n4)cc3[nH]2)cn1 [TDI01200, tert-butyl 4-(6-(4-((1H-indazol-5-yl)amino)-pyrimidin-2-yl)-1H-indole-2-carboxamido)-1H-pyrazole-1-carboxylate]
- pIC50: 6.25

Compound: Cn1c(C(=O)Nc2ccnnc2)cc2ccc(-c3nccc(Nc4ccc5[nH]ncc5c4)n3)cc21 [TDI01201, 6-(4-((1H-indazol-5-yl)amino)-pyrimidin-2-yl)-1-methyl-N-(pyridazin-4-yl)-1H-indole-2-carboxamide]
- pIC50: 5.16

Compound: O=C(Nc1ccnnc1)c1cc2ccc(-c3ncc(F)c(Nc4ccc5[nH]ncc5c4)n3)cc2[nH]1 [TDI01213, 6-(4-((1H-indazol-5-yl)amino)-5-fluoropyrimidin-2-yl)-N-(pyridazin-4-yl)-1H-indole-2-carboxamide]
- pIC50: < 5.00

Compound: CN1CCN(CC(=O)n2ccc3ccc(-c4nccc(Nc5ccc6[nH]ncc6c5)n4)cc32)CC1 [TDI01230, 1-(6-(4-((1H-indazol-5-yl)amino)pyrimidin-2-yl)-1H-indol-1-yl)-2-(4-methylpiperazin-1-yl)ethan-1-one]
- pIC50: 5.82

Compound: Cc1nc(-c2ccc3cc(C(=O)Nc4ccnnc4)[nH]c3c2)nc(Nc2ccc3[nH]ncc3c2)c1C [TDI01232, 6-(4-((1H-indazol-5-yl)amino)-5,6-dimethyl-pyrimidin-2-yl)-N-(pyridazin-4-yl)-1H-indole-2-carboxamide]
- pIC50: < 5.00

Compound: O=C(Nc1ccnnc1)c1ccc2ccc(-c3nccc(Nc4ccc5[nH]ncc5c4)n3)cc2n1 [TDI01236, 7-(4-((1H-indazol-5-yl)ami-no)pyrimidin-2-yl)-N-(pyridazin-4-yl)quinoline-2-carboxamide]
- pIC50: < 5.00

Compound: O=C(Nc1ccnnc1)N1Cc2ccc(-c3nccc(Nc4ccc5[nH]ncc5c4)n3)cc2C1 [TDI01237, 5-(4-((1H-indazol-5-yl)amino)pyrimidin-2-yl)-N-(pyridazin-4-yl)isoindoline-2-carboxamide]
- pIC50: < 5.00

Compound: O=C(Nc1nncs1)c1cc2ccc(-c3nccc(Nc4ccc5[nH]ncc5c4)n3)cc2[nH]1 [TDI01247, 6-(4-((1H-indazol-5-yl)amino)pyrimidin-2-yl)-N-(1,3,4-thiadiazol-2-yl)-1H-indole-2-carboxamide]
- pIC50: < 5.00

Compound: Cc1cnc(-c2ccc3cc(C(=O)Nc4ccnnc4)[nH]c3c2)nc1Nc1ccc2[nH]ncc2c1 [TDI01250, 6-(4-((1H-indazol-5-yl)amino)-5-methyl-pyrimidin-2-yl)-N-(pyridazin-4-yl)-1H-indole-2-carboxamide]
- pIC50: < 5.00

Compound: Cc1cc(Nc2ccc3[nH]ncc3c2)nc(-c2ccc3cc(C(=O)Nc4ccnnc4)[nH]c3c2)n1 [TDI01251, 6-(4-((1H-indazol-5-yl)amino)-6-methyl-pyrimidin-2-yl)-N-(pyridazin-4-yl)-1H-indole-2-carboxamide]
- pIC50: < 5.00

Compound: Cc1c(Nc2ccnc(-c3ccc4cc(C(=O)Nc5ccnnc5)[nH]c4c3)n2)ccc2[nH]ncc12 [TDI01276, 6-(4-((4-methyl-1H-indazol-5-yl)amino)-pyrimidin-2-yl)-N-(pyridazin-4-yl)-1H-indole-2-carboxamide]
- pIC50: < 5.00

Compound: CC(C)NC(=O)c1cc2ccc(-c3nccc(Nc4ccc(-c5cn[nH]c5)cc4)n3)cc2[nH]1 [TDI01280, 6-(4-((4-(1H-pyrazol-4-yl)phenyl)ami-no)pyrimidin-2-yl)-N-isopropyl-1H-indole-2-carboxamide]
- pIC50: 5.99

Compound: CN(C)c1cnccc1NC(=O)c1cc2ccc(-c3nccc(Nc4ccc5[nH]ncc5c4)n3)cc2[nH]1 [TDI01289, 6-(4-((1H-indazol-5-yl)amino)-pyrimidin-2-yl)-N-(3-(dimethylamino)-pyridin-4-yl)-1H-indole-2-carboxamide]
- pIC50: 6.01

Compound: O=C(Nc1ccncc1Cl)c1cc2ccc(-c3nccc(Nc4ccc5[nH]ncc5c4)n3)cc2[nH]1 [TDI01290, 6-(4-((1H-indazol-5-yl)amino)-pyrimidin-2-yl)-N-(3-chloropyridin-4-yl)-1H-indole-2-carboxamide]
- pIC50: < 5.00

Compound: O=C(NC1CCOCC1)c1cc2ccc(-c3nccc(Nc4ccc5[nH]ncc5c4)n3)cc2[nH]1 [TDI01291, 6-(4-((1H-indazol-5-yl)amino)-pyrimidin-2-yl)-N-(tetrahydro-2H-pyran-4-yl)-1H-indole-2-carboxamide]
- pIC50: 6.24

Compound: CC(C)NC(=O)C1Cc2ccc(-c3nccc(Nc4ccc5[nH]ncc5c4)n3)cc2N1 (stereo not drawn) [TDI01292, 6-(4-((1H-indazol-5-yl)amino)-pyrimidin-2-yl)-N-isopropyl-indoline-2-carboxamide]
- pIC50: 5.32

Compound: CN(C)C(=O)c1cc2ccc(-c3nccc(Nc4ccc(-c5cn[nH]c5)cc4)n3)cc2[nH]1 [TDI01294, 6-(4-((4-(1H-pyrazol-4-yl)phenyl)-amino)-pyrimidin-2-yl)-N,N-dimethyl-1H-indole-2-carboxamide]
- pIC50: < 5.00

Compound: CNC(=O)c1cc2ccc(-c3nccc(Nc4ccc(-c5cn[nH]c5)cc4)n3)cc2[nH]1 [TDI01296, 6-(4-((4-(1H-pyrazol-4-yl)phenyl)-amino)-pyrimidin-2-yl)-N-methyl-1H-indole-2-carboxamide]
- pIC50: 5.54
